Columns and labels:
Type in all cases: cell-based, human
MKL-1 cells (VP-MCC) = experiment: qHTS cell viability (CellTiter-Glo, 72 h; primary and follow-up small molecule screen); settings: MKL1, 72h
WAGA cells (VP-MCC) = experiment: as above; settings: WAGA, 72h
MCC26 cells (VN-MCC) = experiment: as above; settings: MCC26, 72h
[1] = tested on: VP-MCC cell lines (WAGA, MKL-1, MKL-2); experiment: qHTS cell viability, VP-MCC cell lines as a group (mean AUC, VP.MCC.avg); settings: re-tested in triplicate, follow-up screen
MCC13 cells (VN-MCC) = experiment: qHTS cell viability (CellTiter-Glo, 72 h; primary and follow-up small molecule screen); settings: MCC13, 72h
MKL-2 cells (VP-MCC) = experiment: as above; settings: MKL2, 72h
GDSC cancer cell lines = experiment: Genomics of Drug Sensitivity in Cancer (GDSC) IC50 comparison across cancer cell lines; settings: own IC50 estimates compared with public IC50 data
Protocol: Palo Alto, CA, USA) for these compounds from our small molecule screen. Following the graphing format in the GDSC database, compounds were ranked by IC50 and plotted in Rstudio using ggplot2, ggrepel, and scales packages. page 9: Supplementary Fig. S6. Au rora kinase inhibi tors mor e potentl y reduc e viability in VP-MCC than VN-MCC. […] Cell viability was measured by CellTiter- Glo at 72 h and by manual cell counts at 144 h. […] Consistent across n = 3 replicates . B) IC50 values (molar) for each aurora kinase inhibitor in each MCC cell line. […] IC50 values from GDSC (Gray-scale and green) were combined with IC50 values determined in our study (purple) and then ranked. n = number of experimental replicates for each cell line.

UISO cells (VN-MCC) = experiment: qHTS cell viability (CellTiter-Glo, 72 h; primary and follow-up small molecule screen); settings: UISO, 72h

## CCn1cc(-c2ccnc3[nH]c(-c4cccc(CN(C)C)c4)cc23)c(-c2ccc(NC(=O)N(C)C)cc2)n1 [GSK-1070916A, reference compound]
MKL-1 cells (VP-MCC); Log (M) -5.33646
  Percent viability: 0.6%
MKL-1 cells (VP-MCC); Log (M) -5.81358
  Percent viability: 0.7%
MKL-1 cells (VP-MCC); Log (M) -6.2907
  Percent viability: 25.3%
MKL-1 cells (VP-MCC); Log (M) -6.76782
  Percent viability: 39.6%
MKL-1 cells (VP-MCC); Log (M) -7.24494
  Percent viability: 24.8%
MKL-1 cells (VP-MCC); Log (M) -7.72207
  Percent viability: 28.8%
MKL-1 cells (VP-MCC); Log (M) -8.19919
  Percent viability: 32.4%
MKL-1 cells (VP-MCC); Log (M) -8.67631
  Percent viability: 60.3%
MKL-1 cells (VP-MCC); Log (M) -9.15343
  Percent viability: 97.5%
MKL-1 cells (VP-MCC); Log (M) -9.63055
  Percent viability: 94.1%
MKL-1 cells (VP-MCC); Log (M) -10.1077
  Percent viability: 98.1%
WAGA cells (VP-MCC); Log (M) -5.33646
  Percent viability: 2.1%
WAGA cells (VP-MCC); Log (M) -5.81358
  Percent viability: 12.6%
WAGA cells (VP-MCC); Log (M) -6.2907
  Percent viability: 31.4%
WAGA cells (VP-MCC); Log (M) -6.76782
  Percent viability: 40.3%
WAGA cells (VP-MCC); Log (M) -7.24494
  Percent viability: 26.0%
WAGA cells (VP-MCC); Log (M) -7.72207
  Percent viability: 27.1%
WAGA cells (VP-MCC); Log (M) -8.19919
  Percent viability: 28.3%
WAGA cells (VP-MCC); Log (M) -8.67631
  Percent viability: 104.6%
WAGA cells (VP-MCC); Log (M) -9.15343
  Percent viability: 100.0%
WAGA cells (VP-MCC); Log (M) -9.63055
  Percent viability: 103.0%
WAGA cells (VP-MCC); Log (M) -10.1077
  Percent viability: 100.0%
MCC26 cells (VN-MCC); Log (M) -5.33646
  Percent viability: 11.3%
MCC26 cells (VN-MCC); Log (M) -5.81358
  Percent viability: 9.7%
MCC26 cells (VN-MCC); Log (M) -6.2907
  Percent viability: 42.5%
MCC26 cells (VN-MCC); Log (M) -6.76782
  Percent viability: 75.5%
MCC26 cells (VN-MCC); Log (M) -7.24494
  Percent viability: 88.6%
MCC26 cells (VN-MCC); Log (M) -7.72207
  Percent viability: 92.0%
MCC26 cells (VN-MCC); Log (M) -8.19919
  Percent viability: 93.6%
MCC26 cells (VN-MCC); Log (M) -8.67631
  Percent viability: 92.5%
MCC26 cells (VN-MCC); Log (M) -9.15343
  Percent viability: 92.1%
MCC26 cells (VN-MCC); Log (M) -9.63055
  Percent viability: 87.6%
MCC26 cells (VN-MCC); Log (M) -10.1077
  Percent viability: 89.3%
[1]
  VP-MCC viability (in words): consistently and potently reduced VP-MCC viability
MCC13 cells (VN-MCC); Log (M) -5.33646
  Percent viability: 0.9%
MCC13 cells (VN-MCC); Log (M) -5.81358
  Percent viability: 37.2%
MCC13 cells (VN-MCC); Log (M) -6.2907
  Percent viability: 74.5%
MCC13 cells (VN-MCC); Log (M) -6.76782
  Percent viability: 88.4%
MCC13 cells (VN-MCC); Log (M) -7.24494
  Percent viability: 96.7%
MCC13 cells (VN-MCC); Log (M) -7.72207
  Percent viability: 113.8%
MCC13 cells (VN-MCC); Log (M) -8.19919
  Percent viability: 87.1%
MCC13 cells (VN-MCC); Log (M) -8.67631
  Percent viability: 100.5%
MCC13 cells (VN-MCC); Log (M) -9.15343
  Percent viability: 112.0%
MCC13 cells (VN-MCC); Log (M) -9.63055
  Percent viability: 98.4%
MCC13 cells (VN-MCC); Log (M) -10.1077
  Percent viability: 100.0%
MKL-2 cells (VP-MCC); Log (M) -5.33646
  Percent viability: 1.0%
MKL-2 cells (VP-MCC); Log (M) -5.81358
  Percent viability: 2.3%
MKL-2 cells (VP-MCC); Log (M) -6.2907
  Percent viability: 21.5%
MKL-2 cells (VP-MCC); Log (M) -6.76782
  Percent viability: 34.0%
MKL-2 cells (VP-MCC); Log (M) -7.24494
  Percent viability: 33.8%
MKL-2 cells (VP-MCC); Log (M) -7.72207
  Percent viability: 50.1%
MKL-2 cells (VP-MCC); Log (M) -8.19919
  Percent viability: 59.6%
MKL-2 cells (VP-MCC); Log (M) -8.67631
  Percent viability: 59.6%
MKL-2 cells (VP-MCC); Log (M) -9.15343
  Percent viability: 98.0%
MKL-2 cells (VP-MCC); Log (M) -9.63055
  Percent viability: 107.1%
MKL-2 cells (VP-MCC); Log (M) -10.1077
  Percent viability: 88.8%
GDSC cancer cell lines
  potency in VP-MCC cell lines versus other human cancer cell lines (GDSC): higher in VP-MCC cell lines than in hundreds of other human cancer cell lines
UISO cells (VN-MCC); Log (M) -5.33646
  Percent viability: 0.3%
UISO cells (VN-MCC); Log (M) -5.81358
  Percent viability: 33.6%
UISO cells (VN-MCC); Log (M) -6.2907
  Percent viability: 52.9%
UISO cells (VN-MCC); Log (M) -6.76782
  Percent viability: 71.1%
UISO cells (VN-MCC); Log (M) -7.24494
  Percent viability: 86.6%
UISO cells (VN-MCC); Log (M) -7.72207
  Percent viability: 91.6%
UISO cells (VN-MCC); Log (M) -8.19919
  Percent viability: 90.7%
UISO cells (VN-MCC); Log (M) -8.67631
  Percent viability: 81.3%
UISO cells (VN-MCC); Log (M) -9.15343
  Percent viability: 106.7%
UISO cells (VN-MCC); Log (M) -9.63055
  Percent viability: 103.4%
UISO cells (VN-MCC); Log (M) -10.1077
  Percent viability: 104.7%

From article PMC11822212, “High-throughput screening identifies Aurora kinase B as a critical therapeutic target for Merkel cell carcinoma” (Nature Communications, 2025)
